Assay results published in ChEMBL document CHEMBL1151117, “Irritant principles of the spurge family (Euphorbiaceae). XIII. Oligocyclic and macrocyclic diterpene esters from latices of some Euphorbia species utilized as source plants of honey” (J Nat Prod, 1988).

Key:
Type in all cases: ADME, organism-based
Mus musculus [1] = species on record: Mus musculus; test: Skin irritant activity in SIM mouse ear assessed as irritation unit per ear after 24 hrs; conditions: in vivo
Mus musculus [2] = species on record: Mus musculus; test: Skin irritant activity in NMRI mouse ear assessed as irritancy 50 after 24 hrs; conditions: in vivo
Mus musculus [3] = species on record: Mus musculus; test: Skin irritant activity in NMRI mouse ear assessed as irritant dose 50 per ear after 24 hrs; conditions: in vivo, topical_or_ocular

SMILES	Activity (Mus musculus [1])	Activity (Mus musculus [2]) [nmol⁻¹]	Activity (Mus musculus [3]) [nmol]
C/C=C(\C)C(=O)O[C@@H]1[C@@H]2[C@H]([C@H](OC(=O)C(C)CC)[C@H](OC(C)=O)/C(C)=C/[C@@]34O[C@@]3(C[C@H](C)[C@@H]4OC(C)=O)C(=O)[C@@H]1C)C2(C)C (some centres not stated)	> 1000 µg		
C/C=C(\C)C(=O)O[C@@]12C[C@@H](C)[C@@]3(O)[C@@H](C=C(COC(C)=O)C[C@]4(O)C(=O)C(C)=C[C@@H]34)[C@@H]1C2(C)C		0.8	1.2
C/C=C(/C)C(=O)O[C@@]12C[C@@H](C)[C@@]3(O)[C@@H](C=C(CO)C[C@]4(O)C(=O)C(C)=C[C@@H]34)[C@@H]1[C@@]2(C)COC(=O)C(C)C		4	0.25
C/C=C(\C)C(=O)O[C@@]12C[C@@H](C)[C@@]3(O)[C@@H](C=C(CO)C[C@]4(O)C(=O)C(C)=C[C@@H]34)[C@@H]1C2(C)C		3.6	0.28
CC(=O)OCC1=C[C@H]2[C@@H]3C(C)(C)[C@]3(OC(=O)C(C)C)C[C@@H](C)[C@]2(O)[C@@H]2C=C(C)C(=O)[C@@]2(O)C1		0.7	1.5
C/C=C(/C)C(=O)O[C@@]12C[C@@H](C)[C@@]3(O)[C@@H](C=C(COC(C)=O)C[C@]4(O)C(=O)C(C)=C[C@@H]34)[C@@H]1[C@@]2(C)COC(=O)C(C)CC (some centres not stated)		0.4	2.4
C/C=C(\C)C(=O)O[C@@H]1[C@@H]2[C@H]([C@H](OC(=O)/C(C)=C/C)[C@H](OC(C)=O)/C(C)=C/[C@@]34O[C@@]3(C[C@H](C)[C@@H]4OC(C)=O)C(=O)[C@@H]1C)C2(C)C	> 1000 µg		
C/C=C(\C)C(=O)O[C@H]1[C@H]2[C@@H]([C@@H](O)[C@@H](C)C(=O)[C@@]34C[C@H](C)[C@H](OC(C)=O)[C@]3(/C=C(\C)[C@H]1OC(=O)C(C)CC)O4)C2(C)C (some centres not stated)	> 1000 µg		
C/C=C(/C)C(=O)O[C@@]12C[C@@H](C)[C@@]3(O)[C@@H](C=C(COC(C)=O)C[C@]4(O)C(=O)C(C)=C[C@@H]34)[C@@H]1[C@@]2(C)COC(=O)C(C)C		1.1	0.91
C/C=C(\C)C(=O)O[C@@H]1[C@@H]2[C@H]([C@H](OC(=O)/C(C)=C/C)[C@H](OC(C)=O)/C(C)=C/[C@@]34O[C@@]3(C[C@H](C)[C@@H]4O)C(=O)[C@@H]1C)C2(C)C	> 1000 µg		
C/C=C(\C)C(=O)O[C@@H]1[C@@H]2[C@H]([C@H](OC(C)=O)[C@H](OC(C)=O)/C(C)=C/[C@@]34O[C@@]3(C[C@H](C)[C@@H]4OC(C)=O)C(=O)[C@@H]1C)C2(C)C	> 1000 µg		
CCC(C)C(=O)O[C@@]12C[C@@H](C)[C@@]3(O)[C@@H](C=C(CO)C[C@]4(O)C(=O)C(C)=C[C@@H]34)[C@@H]1C2(C)C (some centres not stated)		1.2	0.83
CCC(C)C(=O)O[C@@]12C[C@@H](C)[C@@]3(O)[C@@H](C=C(COC(C)=O)C[C@]4(O)C(=O)C(C)=C[C@@H]34)[C@@H]1C2(C)C (some centres not stated)		0.7	1.5
CC1=C[C@H]2[C@@]3(O)[C@H](C)C[C@]4(OC(=O)C(C)C)[C@H]([C@@H]3C=C(CO)C[C@]2(O)C1=O)C4(C)C		1.9	0.53
CCCCCCCCCCCCCC(=O)O[C@@H]1[C@@H](C)[C@@]2(O)[C@@H](C=C(CO)C[C@]3(O)C(=O)C(C)=C[C@@H]23)[C@@H]2C(C)(C)[C@]12OC(C)=O [PHORBOL MYRISTATE ACETATE]	0.05 µg	63	0.016
CC(=O)O[C@@]12C[C@@H](C)[C@@]3(O)[C@@H](C=C(CO)C[C@]4(O)C(=O)C(C)=C[C@@H]34)[C@@H]1C2(C)C [PROSTRATIN]	> 7 nmol		
